Values of other authors as cited in PubChem BioAssay AID1259409 (Chemical Carcinogenesis Research Information System (CCRIS), 2018).

System: rodent chemically induced tumor inhibition, incidence and multiplicity
Test: CCRIS tumor inhibitor studies

## COc1cc(/C=C/C(=O)CC(=O)/C=C/c2ccc(O)c(OC)c2)ccc1O
Carcinogen: BENZO[A]PYRENE, 50-32-8, Dose [Inhibitor]: 0, 10 UMOL IN ACETONE APPLIED 120, 60 AND 5 MIN PRIOR TO CARCINOGEN DOSE (STUDY DURATION: 24 WK), Route [Inhibitor]: DERMAL, Species: MOUSE, Strain/Sex: CD-1/FEMALE, Target Tissue: Type of Lesion: SKIN: TUMORS, Dose [Carcinogen]: 200 NMOL ONCE, Promoter: 12-O-TETRADECANOYLPHORBOL-13-ACETATE, 16561-29-8
  tumour outcome (control, treated, inhibition, significance): 96%, 77%, 20%, not calculated
Carcinogen: METHYL(ACETOXYMETHYL)NITROSAMINE, 56856-83-8, Dose [Inhibitor]: 0, 5% IN DIET FOR DURATION OF STUDY BEGINNING 2 WK PRIOR TO CARCINOGEN TREATMENT (STUDY DURATION: 13 MO), Route [Inhibitor]: ORAL, Species: HAMSTER, Strain/Sex: SYRIAN/FEMALE, Target Tissue: Type of Lesion: ORAL: CAVITY, Dose [Carcinogen]: 2 MG/KG BW APPLIED TO RIGHT CHEEK POUCH 2/MO FOR 6 MO, Promoter: NONE USED
  tumour outcome (control, treated, inhibition, significance): 14/15 (93%), 3/16 (19%), 80%, p<0.001
Carcinogen: N-ETHYL-N'-NITRO-N-NITROSOGUANDINDE, 4245-77-6, Dose [Inhibitor]: 0, 1% COMMERCIAL GRADE CURCUMIN IN DIET FOR 16 WK BEGINNING 1 WK POST CARCINOGEN TREATMENT (STUDY DURATION: 20 WK), Route [Inhibitor]: ORAL, Species: MOUSE, Strain/Sex: C57BL/MALE, Target Tissue: Type of Lesion: DUODENUM: ADENOMA, Dose [Carcinogen]: 120 MG/L IN DRINKING WATER FOR 4 WK, Promoter: NONE USED
  tumour outcome (control, treated, inhibition, significance): 45%, 28%, 38%, not significant
Carcinogen: N-ETHYL-N'-NITRO-N-NITROSOGUANIDINE, 4245-77-6, Dose [Inhibitor]: 0, 0.5% COMMERCIAL GRADE CURCUMIN IN DIET FOR 16 WK BEGINNING 1 WK POST CARCINOGEN TREATMENT (STUDY DURATION: 20 WK), Route [Inhibitor]: ORAL, Species: MOUSE, Strain/Sex: C57BL/MALE, Target Tissue: Type of Lesion: DUODENUM: ADENOCARCINOMA, Dose [Carcinogen]: 120 MG/L IN DRINKING WATER FOR 4 WK, Promoter: NONE USED
  tumour outcome (control, treated, inhibition, significance): 6%, 4%, 33%, not significant
Carcinogen: N-ETHYL-N'-NITRO-N-NITROSOGUANIDINE, 4245-77-6, Dose [Inhibitor]: 0, 0.5% COMMERCIAL GRADE CURCUMIN IN DIET FOR 16 WK BEGINNING 1 WK POST CARCINOGEN TREATMENT (STUDY DURATION: 20 WK), Route [Inhibitor]: ORAL, Species: MOUSE, Strain/Sex: C57BL/MALE, Target Tissue: Type of Lesion: DUODENUM: ADENOMA, Dose [Carcinogen]: 120 MG/L IN DRINKING WATER FOR 4 WK, Promoter: NONE USED
  tumour outcome (control, treated, inhibition, significance): 45%, 20%, 56%, not significant
Carcinogen: N-ETHYL-N'-NITRO-N-NITROSOGUANIDINE, 4245-77-6, Dose [Inhibitor]: 0, 1% COMMERCIAL GRADE CURCUMIN IN DIET FOR 16 WK BEGINNING 1 WK POST CARCINOGEN TREATMENT (STUDY DURATION: 20 WK), Route [Inhibitor]: ORAL, Species: MOUSE, Strain/Sex: C57BL/MALE, Target Tissue: Type of Lesion: DUODENUM: ADENOCARCINOMA, Dose [Carcinogen]: 120 MG/L IN DRINKING WATER FOR 4 WK, Promoter: NONE USED
  tumour outcome (control, treated, inhibition, significance): 6%, 4%, 33%, not significant
Carcinogen: N-ETHYL-N'-NITRO-N-NITROSOGUANIDINE, 4245-77-6, Dose [Inhibitor]: 0, 2% COMMERCIAL GRADE CURCUMIN IN DIET FOR 16 WK BEGINNING 1 WK POST CARCINOGEN TREATMENT (STUDY DURATION: 20 WK), Route [Inhibitor]: ORAL, Species: MOUSE, Strain/Sex: C57BL/MALE, Target Tissue: Type of Lesion: DUODENUM: ADENOCARCINOMA, Dose [Carcinogen]: 120 MG/L IN DRINKING WATER FOR 4 WK, Promoter: NONE USED
  tumour outcome (control, treated, inhibition, significance): 6%, 5%, 17%, not significant
Carcinogen: N-ETHYL-N'-NITRO-N-NITROSOGUANIDINE, 4245-77-6, Dose [Inhibitor]: 0, 2% COMMERCIAL GRADE CURCUMIN IN DIET FOR 16 WK BEGINNING 1 WK POST CARCINOGEN TREATMENT (STUDY DURATION: 20 WK), Route [Inhibitor]: ORAL, Species: MOUSE, Strain/Sex: C57BL/MALE, Target Tissue: Type of Lesion: DUODENUM: ADENOMA, Dose [Carcinogen]: 120 MG/L IN DRINKING WATER FOR 4 WK, Promoter: NONE USED
  tumour outcome (control, treated, inhibition, significance): 45%, 27%, 40%, not significant
Carcinogen: N-METHYL-N'-NITRO-N-NITROSOGUANIDINE, 70-25-7, Route [Inhibitor]: 0, 0.05% IN DIET FOR 55 WK BEGINNING IMMEDIATELY POST-CARCINOGEN TREATMENT, THEN SWITCHED TO BASAL DIET FOR 4 WK (STUDY, Species: RAT, Strain/Sex: WISTAR/MALE, Target Tissue: Type of Lesion: GLANDULAR STOMACH: ADENOCARCINOMA, Dose [Carcinogen]: 100 PPM IN DRINKING WATER FOR 8 WK, Promoter: SODIUM CHLORIDE, 7647-14-5
  tumour outcome (control, treated, inhibition, significance): 1/29 (3%), 2/29 (7%), -133%, not significant
Carcinogen: N-METHYL-N'-NITRO-N-NITROSOGUANIDINE, 70-25-7, Route [Inhibitor]: 0, 0.2% IN DIET FOR 55 WK BEGINNING IMMEDIATELY POST-CARCINOGEN TREATMENT, THEN SWITCHED TO BASAL DIET FOR 4 WK (STUDY D, Species: RAT, Strain/Sex: WISTAR/MALE, Target Tissue: Type of Lesion: GLANDULAR STOMACH: ADENOCARCINOMA, Dose [Carcinogen]: 100 PPM IN DRINKING WATER FOR 8 WK, Promoter: SODIUM CHLORIDE, 7647-14-5
  tumour outcome (control, treated, inhibition, significance): 1/29 (3%), 2/30 (7%), -133%, not significant
Carcinogen: NONE USED, Dose [Inhibitor]: 0, 2% IN DIET FROM 12 MO OF AGE (STUDY DURATION: 15 MO), Route [Inhibitor]: ORAL, Species: MOUSE, Strain/Sex: C3H/FEMALE, Target Tissue: Type of Lesion: MAMMARY GLAND: TUMOR, Promoter: NONE USED
  tumour outcome (control, treated, inhibition, significance): 12/20 (60%), 8/18 (44%), 27%, not calculated
Carcinogen: NONE USED, Dose [Inhibitor]: 0, 5% IN DIET FROM 6 MO OF AGE (STUDY DURATION: 15 MO), Route [Inhibitor]: ORAL, Species: MOUSE, Strain/Sex: C3H/FEMALE, Target Tissue: Type of Lesion: MAMMARY GLAND: TUMOR, Promoter: NONE USED
  tumour outcome (control, treated, inhibition, significance): 12/20 (60%), 0/15 (0%), 100%, not calculated
Carcinogen: NONE USED, Dose [Inhibitor]: 0, 5% IN DIET FROM 8 MO OF AGE (STUDY DURATION: 15 MO), Route [Inhibitor]: ORAL, Species: MOUSE, Strain/Sex: C3H/FEMALE, Target Tissue: Type of Lesion: MAMMARY GLAND: TUMOR, Promoter: NONE USED
  tumour outcome (control, treated, inhibition, significance): 12/20 (60%), 7/21 (33%), 45%, not calculated
Carcinogen: NONE USED, Dose [Inhibitor]: O, 5% IN DIET FROM 12 MO OF AGE (STUDY DURATION: 15 MO), Route [Inhibitor]: ORAL, Species: MOUSE, Strain/Sex: C3H/FEMALE, Target Tissue: Type of Lesion: MAMMARY GLAND: TUMOR, Promoter: NONE USED
  tumour outcome (control, treated, inhibition, significance): 12/20 (60%), 5/17 (29%), 52%, not calculated
